Experimental data as given in BindingDB's records for doi:10.1016/s0960-894x(99)00488-6 (Smithkline Beecham Pharmaceuticals, 1999).

Biological target: Tyrosine--tRNA ligase (Staphylococcus aureus)
Experiment: Compound was tested for inhibition of Staphylococcus aureus tyrosyl tRNA Synthetase

Row | IC50 | Compound
1 | 3400 nM | N[C@@H](Cc1ccc(O)cc1)C(=O)NC(C(=O)O)c1cccc(O)c1 (stereo partly drawn) [[(S)-2-Amino-3-(4-hydroxy-phenyl)-propionylamino]-(3-hydroxy-phenyl)-acetic acid]
2 | 900 nM | N[C@@H](Cc1ccc(O)cc1)C(=O)N[C@H](C(=O)O)c1ccccc1 [(S)-[(S)-2-Amino-3-(4-hydroxy-phenyl)-propionylamino]-phenyl-acetic acid]
3 | 1200 nM | COC(=O)C(NC(=O)[C@@H](N)Cc1ccc(O)cc1)c1ccccc1O (stereo partly drawn) [[(S)-2-Amino-3-(4-hydroxy-phenyl)-propionylamino]-(2-hydroxy-phenyl)-acetic acid methyl ester]
4 | 800 nM | N[C@@H](Cc1ccc(O)cc1)C(=O)NC(C(=O)O)c1ccccc1O (stereo partly drawn) [[(S)-2-Amino-3-(4-hydroxy-phenyl)-propionylamino]-(2-hydroxy-phenyl)-acetic acid]
5 | 11000 nM | N[C@@H](Cc1ccc(O)cc1)C(=O)N[C@H](C(=O)O)c1ccc(O)c(O)c1 [(S)-[(S)-2-Amino-3-(4-hydroxy-phenyl)-propionylamino]-(3,4-dihydroxy-phenyl)-acetic acid]
6 | 7800 nM | N[C@@H](Cc1ccc(O)cc1)C(=O)NC(C(=O)O)c1ccccc1F (stereo partly drawn) [[(S)-2-Amino-3-(4-hydroxy-phenyl)-propionylamino]-(2-fluoro-phenyl)-acetic acid]
